Tested on: RIN, MIN, β-TC1 (INSM1+ insulinomas)
Assay: Cell survival assay (MTS), INSM1-positive insulinoma cells
Type: cell-based, rat, mouse
Settings: 200 μM GCV, no virus, RTC-1 cells
Experimental: FIGS. 13A-13D illustrate that the oncolytic virus in combination with Ad-INSM1p-HSV-tk increased efficacy of tumor cell killing. An MTS colorimetric assay was conducted to measure the cell survival with 3 insulinoma cell lines: RIN, MIN, β-TC1 (INSM1^+ insulinomas), and Panc-1 (INSM1^− pancreatic epithelioid carcinoma).
FIG. 13D is a graph illustrating cells treated with a combination of Ad-IMSM1p-HSV-tk and Ad-INSM1p-E1A-HSV-tk viruses. Cells were first treated with virus ranging from 0-100 MOI. […] Cell survival was measured by MTS colorimetric analysis at 490 nm. (n=6). […]
FIG. 14D is a graph illustrating cells treated with a combination of Ad-IMSM1p-HSV-tk and Ad-INSM1p-E1A-HSV-tk viruses. […] Cell survival was measured by MTS colorimetric analysis at 490 nm. […]
Cell survival assay. […] Afterwards, cell survival was assessed using […] 96® AQueous One Solution Cell Proliferation Assay (Promega, cat. no. G3582) and read at 490 nm on a Bio-Tek Synergy-HT Microplate Reader. Results were plotted as relative absorbance (relative to control sample with no virus) against increasing viral MOI. Samples were conducted in six wells each and statistical significance was determined using the students T-test with a threshold of p<0.05.
For a second experiment, the same viral constructs were used to infect cancer cells at a constant 50 MOI. […] After the treatment period, cell survival was assessed using […] […]

SMILES: Nc1nc(O)c2ncn(COC(CO)CO)c2n1 [GCV, 2-amino-9-{[(1,3-dihydroxypropan-2-yl)oxy]methyl}-6,9-dihydro-3H-purin-6-one]
- cell survival with GCV in the absence of adenovirus: decrease in survival
